The values that follow come from patent US20240182413A1, “INSECTICIDAL COMPOUNDS” (Pluton Biosciences, Inc., priority 2022, published 2024).

In one data set the test system is Aedes aegypti larvae. The data set can be described thus: Aedes aegypti killing assay (larval bioassay, two-fold dilution series). It is filed as in vivo. The conditions noted are these: for killing activity against Aedes aegypti: larvae. As to the method:
Insect killing assays. Each compound was dissolved in dimethyl sulfoxide (DMSO). Killing dose curves were constructed for each compound by producing a two-fold dilution series for each compound (e.g., comprising approximately 20 serial dilutions of a stock). Dilutions were made in sterile nutrient yeast extract salt medium (NYSM) broth. The NYSM contained 8 g/L nutrient broth powder, 0.5 g/L yeast extract, 1 mM MgCl2, 700 μM CaCl2, and 50 μM MnCl2 in water. The two-fold dilution series were tested in a killing bioassay as described below. Data were collected to construct a dose curve and determine the half-maximal lethal concentration (LC50) value.
Bioassays were performed using second or third instar Aedes aegypti larvae, with biological replication. Ae. aegpyti larvae were purchased from Benzon Research, Inc. (Carlisle, PA). Larvae were washed with sterile water before transfer to 24-well assay plates containing 1 mL of sterile water in each well. Each well contained 5 larvae. The final DMSO concentration in each assay well was 1%. Larval mortality was scored for each well at 24-hour timepoints after application. […] In Table 1, mean mortalities and standard deviations were calculated from at least three independent biological replicates. […] LC50 values were calculated using GraphPad Prism software.

Data set [1] relates to Spodoptera frugiperda (fall armyworm) first instar larvae. The data set can be described thus: Spodoptera frugiperda killing assay (diet-surface overlay). Type of data set: in vivo. The procedure: Insect killing assays. Each compound was dissolved in dimethyl sulfoxide (DMSO). Killing dose curves were constructed for each compound by producing a two-fold dilution series of the compound (e.g., comprising approximately 16 serial dilutions of a stock for 3,3′-diindolylmethane and 3-((1H-Indol-2-yl)methyl)-1H-indole and comprising approximately 12 serial dilutions of a stock for 3,3′-diindolyl and 3,3′-(pyridin-4-ylmethylene)bis(1H-indole)). Dilutions were made in sterile NYSM broth as described above. The two-fold dilution series were tested in a killing bioassay as described below. Data were collected to construct a dose curve and determine the half-maximal lethal concentration (LC50) value.
Bioassays were performed using first instar larvae of the Lepidopteran species Spodoptera frugiperda (fall armyworm), with an N=16 for each concentration of compound tested. S. frugiperda larvae were purchased from Benzon Research, Inc. (Carlisle, PA). A diet-surface overlay format was used in which 1 milliliter of standard lepidopteran diet was placed in each well. One hundred microliters of sample were pipetted into each well and allowed to dry. A DMSO control was included with each set of samples.
During the development of embodiments of the technology described herein, experiments were conducted to test the killing of arundine against a panel of 11 insect species. […] Briefly, arundine was dissolved in dimethyl sulfoxide (DMSO). Killing dose curves were constructed by producing a two-fold dilution series of arundine. Dilutions were made in sterile NYSM as described. The two-fold dilution series were tested in a killing bioassay performed using first instar larvae of the species listed in Table 4, with an N=16 for each concentration of compound tested. A diet-surface overlay format was used in which 1 milliliter of standard lepidopteran diet was placed in each well. One hundred microliters of sample were pipetted into each well and allowed to dry. A DMSO control was included with each set of samples. […] Data were collected to construct a dose curve and determine the half-maximal lethal concentration (LC50) value.

Where [2] appears, read: second or third instar larvae, mortalities at 72 hours, mean ± standard deviation, at least three biological replicates.
[3] abbreviates: second or third instar larvae, mortalities at 72 hours, mean ± standard deviation, at least three biological replicates, read-out: LC50.
Setting [4] is: Spodoptera frugiperda, first instar larvae, calculated from killing dose curves FIG. 3D to 3NN, read-out: LD50 (the source's name).
The mark [5] stands for this setting: first instar larvae, calculated from killing dose curves FIG. 3D to 3NN, read-out: LD50 (the source's name).

The structures appear in SMILES notation. Converted amounts (≈) assume the structure as drawn. “And” between values parts separate entries of the source, which are not always exact repeats. Equal values may be shown once. “Also recorded” adds a separate entry of the source. Read-outs that look alike come from different tables or passages of the source. Bounds are passed on as bounds.

Consider `COc1ccc(C(c2c[nH]c3ccccc23)c2c[nH]c3ccccc23)cc1` [1,1-bis(3′-indolyl)-1-(p-methoxyphenyl)methane], for which, in the data set on Aedes aegypti larvae (in vivo), the LC50 was 66.6 ± 56.4 µM and the “LC50 (μg/mL)” value turned out to be 23.4 ± 19.8 µg/mL (≈ 66.4 µM).

`Cc1cn(C)c2ccccc12` [1,3 dimethylindole, 1,3-dimethylindole]: the LC50 with Aedes aegypti larvae (Aedes aegypti, 72 h) is 13.8 µg/mL and 95.2 µM. For `Cc1cc2ccccc2[nH]1` [2-methindole], in the data set on Aedes aegypti larvae (setting [2]), the “LC50 (μg/mL)” value amounted to 6.8 ± 0.5 µg/mL (≈ 51.8 µM). For the same compound, the LC50 in the data set with Aedes aegypti larvae (setting [3]) was 52.2 ± 3.6 µM. With `Clc1ccc(C(c2c[nH]c3ccccc23)c2c[nH]c3ccccc23)cc1` [3,3′-((4-chlorophenyl)methylene)bis(1H-indole)], the LC50 in the data set with Aedes aegypti larvae (Aedes aegypti, 72 h) is 2.6 µg/mL and 7.3 µM. On the same count and under the same terms, as for `CC(c1c[nH]c2ccccc12)c1c[nH]c2ccccc12` [3,3′-(ethane-1,1-diyl)bis(1H-indole)], the figure is 4.2 µg/mL and 16.1 µM.

Turning to `c1ccc2c(C(c3ccncc3)c3c[nH]c4ccccc34)c[nH]c2c1` [3,3′-(pyridin-4-ylmethylene)bis(1H-indole)], the LC50 is 62.9 µg/mL and 194 µM in the data set with Aedes aegypti larvae (Aedes aegypti, 72 h); 120 µg/mL and 370 µM in data set [1] (Spodoptera frugiperda, first instar larvae, N=16 per concentration, representative curve fit). Besides, the “killing activity against Aedes aegypti” value in the data set on Aedes aegypti larvae is given as “active”. In data set [1] (first instar larvae), the “activity against S. frugiperda” value is listed as “active”.

With `c1ccc2c(-c3c[nH]c4ccccc34)c[nH]c2c1` [3,3′-diindolyl], the “killing activity against Aedes aegypti” value with Aedes aegypti larvae is on record as “did not display any bioactivity; also recorded: does not have significant killing activity”. The “LC50 (μg/mL)” value with Aedes aegypti larvae (setting [2]) is above 2500 µg/mL. In addition, the LC50 in the data set with Aedes aegypti larvae (setting [3]) was above 1000 µM. In addition, the “activity against S. frugiperda” value in data set [1] (first instar larvae) is recorded as “not active; also recorded: does not have significant killing activity”.

Take `Fc1ccc2[nH]cc(Cc3c[nH]c4ccc(F)cc34)c2c1` [3,3′-methylenebis(5-fluoro-1H-indole)]: the LC50 in the data set with Aedes aegypti larvae (Aedes aegypti, 72 h) was 2.2 µg/mL and 7.8 µM. In the case of `CCc1c[nH]c2ccccc12` [3-ethyl-1H-indole], the LC50 in the data set with Aedes aegypti larvae (Aedes aegypti, second or third instar larvae, mortalities at 72 hours, mean ± standard deviation, at least three biological replicates, read-out: LC50) came to 60 ± 24.2 µM; in the data set with Aedes aegypti larvae (Aedes aegypti, second or third instar larvae, mortalities at 72 hours, mean ± standard deviation, at least three biological replicates, read-out: LC50 (μg/mL)), 8.7 ± 3.5 µg/mL.

On to `Oc1ccc2[nH]ccc2c1` [5-hydroxyindole], for which the LC50 in the data set on Aedes aegypti larvae (Aedes aegypti, 72 h) is 279 µg/mL and 2.09 mM. On to `Cn1cc(Cc2cn(C)c3ccccc23)c2ccccc21` [BIM-2], for which the LC50 in data set [1] (setting [4]) was above 3000 µM. On the same count and under the same terms, as for `CC(c1c[nH]c2ccccc12)c1c[nH]c2ccccc12` [BIM-3], the figure is 1280 µM.

For `CC(C)(c1c[nH]c2ccccc12)c1c[nH]c2ccccc12` [BIM-4], the LC50 in data set [1] (setting [4]) was 1810 µM. `CCC(c1c[nH]c2ccccc12)c1c[nH]c2ccccc12` [BIM-5]: the LC50 in data set [1] (setting [4]) was 2380 µM. On the same count and under the same terms, as for `CCCC(c1c[nH]c2ccccc12)c1c[nH]c2ccccc12` [BIM-6], the figure is 3240 µM. `c1ccc(C(c2c[nH]c3ccccc23)c2c[nH]c3ccccc23)cc1` [BIM-7]: the LC50 in data set [1] (setting [4]) was 1680 µM.

With `c1ccc(CC(c2c[nH]c3ccccc23)c2c[nH]c3ccccc23)cc1` [BIM-8], in data set [1] (setting [4]), the LC50 was 1480 µM. On the same count and under the same terms, the result for `Clc1cccc2[nH]cc(Cc3c[nH]c4cccc(Cl)c34)c12` [BIM-9] reads 1560 µM; that for `Clc1ccc2[nH]cc(Cc3c[nH]c4ccc(Cl)cc34)c2c1` [BIM-10], above 3000 µM. Still for that read-out and setting: as for `Clc1cccc2c(Cc3c[nH]c4c(Cl)cccc34)c[nH]c12` [BIM-12], the figure is 1180 µM. Still for that read-out and setting: as for `Fc1ccc2c(Cc3c[nH]c4cc(F)ccc34)c[nH]c2c1` [BIM-13], the figure is 1850 µM; as for `Brc1ccc2c(Cc3c[nH]c4cc(Br)ccc34)c[nH]c2c1` [BIM-14], 934 µM. `Ic1ccc2c(Cc3c[nH]c4cc(I)ccc34)c[nH]c2c1` [BIM-15]: the LC50 in data set [1] (setting [4]) was above 10000 µM. Still for that read-out and setting: the result for `N#Cc1ccc2c(Cc3c[nH]c4cc(C#N)ccc34)c[nH]c2c1` [BIM-17] reads above 10000 µM.

Consider `O=[N+]([O-])c1ccc2c(Cc3c[nH]c4cc([N+](=O)[O-])ccc34)c[nH]c2c1` [BIM-18], for which the LC50 in data set [1] (Spodoptera frugiperda, read-out: LD50 (μM)) was above 10000 µM.

Take `Cc1ccc2c(Cc3c[nH]c4cc(C)ccc34)c[nH]c2c1` [BIM-19]: the LC50 in data set [1] (setting [4]) is 1410 µM. Consider `COc1ccc2c(Cc3c[nH]c4cc(OC)ccc34)c[nH]c2c1` [BIM-20], for which the LC50 in data set [1] (setting [5]) was above 3000 µM. As to `FC(F)(F)c1ccc2c(Cc3c[nH]c4cc(C(F)(F)F)ccc34)c[nH]c2c1` [BIM-21], the LC50 in data set [1] (setting [4]) was 974 µM. On to `CC(c1c[nH]c2cc(Cl)ccc12)c1c[nH]c2cc(Cl)ccc12` [BIM-22], for which the LC50 in data set [1] (setting [4]) was below 3000 µM. Same read-out and setting: as for `CCC(c1c[nH]c2cc(Cl)ccc12)c1c[nH]c2cc(Cl)ccc12` [BIM-23], the figure is 1350 µM; as for `CCCC(c1c[nH]c2cc(Cl)ccc12)c1c[nH]c2cc(Cl)ccc12` [BIM-24], 678 µM.

Regarding `c1ccc2c(C(CCCC(c3c[nH]c4ccccc34)c3c[nH]c4ccccc34)c3c[nH]c4ccccc34)c[nH]c2c1` [BIM-27], the LC50 in data set [1] (setting [4]) was above 5000 µM.

Take `Clc1ccc(C(c2c[nH]c3cc(Cl)ccc23)c2c[nH]c3cc(Cl)ccc23)cc1` [BIM-33]: the LC50 in data set [1] (setting [4]) was 485 µM. Still for that read-out and setting: the result for `Clc1ccc2c(C(c3cccc(Br)c3)c3c[nH]c4cc(Cl)ccc34)c[nH]c2c1` [BIM-35] reads 429 µM. In the case of `Clc1ccc2c(Cc3c[nH]c4ccccc34)c[nH]c2c1` [BIM-36], in data set [1] (setting [5]), the LC50 was 2457 µM. Same read-out and setting: the result for `Clc1ccc2c(C(c3ccc(Br)cc3)c3c[nH]c4ccccc34)c[nH]c2c1` (centres unmarked) [BIM-37 R/S 1:1] reads 725 µM. Still for that read-out and setting: the result for `Clc1ccc2c(C(c3ccc(Br)cc3)c3c[nH]c4ccccc34)c[nH]c2c1` (centres unmarked) [BIM-37 R/S 3:1] reads 576 µM. Take `CN(C)Cc1c[nH]c2ccccc12` [gramine]: the LC50 in the data set with Aedes aegypti larvae (Aedes aegypti, 72 h) was 189 µg/mL and 1.08 mM. In the case of `OCc1c[nH]c2ccccc12` [indole-3-carbinol], in the data set with Aedes aegypti larvae (in vivo), the LC50 worked out at 453 ± 307 µM and the “LC50 (μg/mL)” value worked out at 66.7 ± 45.2 µg/mL (≈ 453 µM). With `c1ccc2[nH]ccc2c1` [indole], the LC50 in the data set with Aedes aegypti larvae (Aedes aegypti, 72 h) is 40.2 µg/mL and 344 µM.
